The text below walks through data of the supplement of paper PMC7695840.

For assay [1], the system named is Staphylococcus aureus MW2 delta-mecA (mecA-). Kind of assay: IC50 (growth, competition assay). To be noted: cefoxitin: subinhibitory. The procedure, abridged:
(§1)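 Pre-induced, 1:1-mixed fluorescent S. aureus MW2 mecA+ and ΔmecA strains were grown 20 h at 37 °C, 90% humidity, unshaken, in LB with a daily-set subinhibitory cefoxitin dose, in 1536-well plates. Compounds were given on five- or nine-point 2-fold gradients, in two dye-swapped replicates. DsRed (540/590) and GFP (485/520) were scaled per plate between single-strain control medians, with No Treatment then set to 0.5. Per-strain IC50 was the dose halving the No Treatment signal, or the maximal signal.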

The test system of assay [2] is Staphylococcus aureus MW2 (mecA+). As to the kind of experiment: IC50 (growth, competition assay). Conditions: cefoxitin: subinhibitory. The procedure, abridged:
as §1

Structures are written as SMILES. “And” between values parts separate entries of the source, which are not always exact repeats. Identical values can stand only once. Counter-ions that a name gives are not always drawn. A value given as a limit tells only on which side of the number the result lay.

The IC50 is the point on the concentration scale where inhibition reaches its midpoint. Read a low IC50 as inhibition by little substance. For `COC(=O)c1c(OC)cc2c(c1C)Oc1c(Cl)c(O)c(Cl)c(C)c1C(=O)O2` [GANGALEOIDIN], the IC50 is 38.3 µM in assay [1] (fluorescent label: DsRed), < 9.85 µM in assay [1] (fluorescent label: GFP), < 9.85 µM in assay [2] (fluorescent label: DsRed) and 62.4 µM in assay [2] (fluorescent label: GFP).
Consider `CN1CCN(c2c(F)cc3c(=O)c(C(=O)O)cn4c3c2SCC4)CC1` [TEBRAXIN], for which the half-inhibitory concentration (IC50) in assay [1] (fluorescent label: DsRed), in assay [1] (fluorescent label: GFP), in assay [2] (fluorescent label: DsRed) and in assay [2] (fluorescent label: GFP) was < 9.85 µM throughout.
As to `CCN1C[C@H](C)n2c(c(O)c3c(=O)n(Cc4ccc(F)c(Cl)c4)nc(C(=O)NC)c32)C1=O` [MK-2048], the IC50 was found to be 39.3 µM in assay [1] (fluorescent label: DsRed), 40.9 µM in assay [1] (fluorescent label: GFP), 80.3 µM in assay [2] (fluorescent label: DsRed) and 64 µM in assay [2] (fluorescent label: GFP).
Regarding `Cc1cc(C(C)(C)CC(C)(C)C)ccc1OCCOCC[N+](C)(C)Cc1ccccc1` [DELAVAN], the IC50 in assay [1] (fluorescent label: DsRed), in assay [1] (fluorescent label: GFP), in assay [2] (fluorescent label: DsRed) and in assay [2] (fluorescent label: GFP) was < 9.85 µM each time.
As to `CCCCc1oc2ccc(NS(C)(=O)=O)cc2c1C(=O)c1ccc(OCCCN(CCCC)CCCC)cc1` [Dronedarone HCl (Multaq)], the IC50 in assay [1] (fluorescent label: DsRed) was determined as 5.95 µM; in assay [1] (fluorescent label: GFP) it was 3.07 µM; in assay [2] (fluorescent label: DsRed) it was 14.3 µM; in assay [2] (fluorescent label: GFP), 14.9 µM.
Take `O=C1Nc2ccc(I)cc2/C1=C/c1cc(Br)c(O)c(Br)c1` [GW5074]: the IC50 in assay [1] (fluorescent label: DsRed), in assay [1] (fluorescent label: GFP), in assay [2] (fluorescent label: DsRed) and in assay [2] (fluorescent label: GFP) was < 9.85 µM throughout.
In the case of `CN(C)[C@@H]1C(O)=C(C(N)=O)C(=O)[C@@]2(O)C(O)=C3C(=O)c4c(O)ccc(Cl)c4[C@@H](O)[C@H]3C[C@@H]12` [DECLOMYCIN], the half-maximal inhibitory concentration (IC50) in assay [1] (fluorescent label: DsRed), in assay [1] (fluorescent label: GFP), in assay [2] (fluorescent label: DsRed) and in assay [2] (fluorescent label: GFP) was < 9.85 µM throughout.
On to `CC(=O)OCC1=C(C(=O)O)N2C(=O)[C@@H](NC(=O)Cc3cccs3)[C@H]2SC1` [KEFLIN], for which the IC50 in assay [1] (fluorescent label: DsRed), in assay [1] (fluorescent label: GFP), in assay [2] (fluorescent label: DsRed) and in assay [2] (fluorescent label: GFP) was < 9.85 µM in each case.
Take `CCn1cc(C(=O)O)c(=O)c2ccc(C)nc21` [Nalidixic acid (NegGram)]: the IC50 was 31.2 µM and 18.4 µM in assay [1] (fluorescent label: DsRed); 17.2 µM and 16.7 µM in assay [1] (fluorescent label: GFP); 99.9 µM and 57.2 µM in assay [2] (fluorescent label: DsRed); 110 µM and 57.2 µM in assay [2] (fluorescent label: GFP).
As to `CCN(CC)CCOc1ccc(Nc2ncc3cc(-c4c(Cl)cccc4Cl)c(=O)n(C)c3n2)cc1`, the IC50 is 30.6 µM in assay [1] (fluorescent label: DsRed), 36.5 µM in assay [1] (fluorescent label: GFP), 85.1 µM in assay [2] (fluorescent label: DsRed) and 106 µM in assay [2] (fluorescent label: GFP).
Take `C[C@H]1COC2=C1C(=O)C(=O)c1c2ccc2c1CCCC2(C)C` [Cryptotanshinone]: the IC50 was < 9.85 µM in assay [1] (fluorescent label: DsRed), < 9.85 µM in assay [1] (fluorescent label: GFP), 12.1 µM in assay [2] (fluorescent label: DsRed) and 19.2 µM in assay [2] (fluorescent label: GFP).
In the case of `O=C(O[C@@H]1Cc2c(O)cc(O)cc2O[C@@H]1c1cc(O)c(=O)c2c(O)c(O)cc([C@H]3Oc4cc(O)cc(O)c4C[C@H]3O)c2c1)c1cc(O)c(O)c(O)c1` [THEAFLAVIN MONOGALLATES], the IC50 in assay [1] (fluorescent label: DsRed) amounted to 14.8 µM; in assay [1] (fluorescent label: GFP), 20.5 µM; in assay [2] (fluorescent label: DsRed), 111 µM; in assay [2] (fluorescent label: GFP) it was 93.4 µM.
`CCc1ccc(/C=C2/SC(=S)NC2=O)cc1`: the IC50 in assay [1] (fluorescent label: DsRed), in assay [1] (fluorescent label: GFP), in assay [2] (fluorescent label: DsRed) and in assay [2] (fluorescent label: GFP) was < 9.85 µM each time.
Turning to `O=C1[C@H](CC[C@H](O)c2ccc(F)cc2)[C@@H](c2ccc(O)cc2)N1c1ccc(F)cc1` [ZETIA], the IC50 in assay [1] (fluorescent label: DsRed) stood at 25.9 µM; in assay [1] (fluorescent label: GFP), 24.8 µM; in assay [2] (fluorescent label: DsRed), 103 µM; in assay [2] (fluorescent label: GFP), 105 µM.
For `O=Nc1ccc2oc(=O)ccc2c1` [6-Nitroso-1,2-benzopyrone], the IC50 in assay [1] (fluorescent label: DsRed) amounted to 31 µM; in assay [1] (fluorescent label: GFP), 32.1 µM; in assay [2] (fluorescent label: DsRed) it was 53.1 µM; in assay [2] (fluorescent label: GFP), 57.9 µM.
Consider `CCCCCCCCNC(C)C(O)c1ccc(SC(C)C)cc1` (centres undefined) [SULOCTIDIL], for which the IC50 in assay [1] (fluorescent label: DsRed) is 17.3 µM; in assay [1] (fluorescent label: GFP), 24.4 µM; in assay [2] (fluorescent label: DsRed), 29.6 µM; in assay [2] (fluorescent label: GFP), 27.5 µM.
Turning to `Cc1cc(N)c2ccccc2[n+]1CCCCCCCCCC[n+]1c(C)cc(N)c2ccccc21` [Dequalinium Chloride], the IC50 in assay [1] (fluorescent label: DsRed) was < 9.85 µM; in assay [1] (fluorescent label: GFP) it was < 9.85 µM; in assay [2] (fluorescent label: DsRed), < 9.85 µM; in assay [2] (fluorescent label: GFP), 11.3 µM.
Turning to `O=C(Nc1ncc([N+](=O)[O-])s1)c1ccc([N+](=O)[O-])c(Cl)c1`, the IC50 is 13.2 µM in assay [1] (fluorescent label: DsRed), 15.2 µM in assay [1] (fluorescent label: GFP), < 9.85 µM in assay [2] (fluorescent label: DsRed) and < 9.85 µM in assay [2] (fluorescent label: GFP).
As for `CC(C)CCC[C@@H](C)[C@H]1CC[C@H]2[C@@H]3CC[C@H]4CC(=O)CC[C@]4(C)[C@H]3CC[C@]12C` [CHOLESTAN-3-ONE], the IC50 is 17.3 µM in assay [1] (fluorescent label: DsRed), 31.9 µM in assay [1] (fluorescent label: GFP), > 150 µM in assay [2] (fluorescent label: DsRed) and > 150 µM in assay [2] (fluorescent label: GFP).
Consider `O=c1[nH]cc(F)c(=O)[nH]1` [Adrucil (Fluorouracil)], for which the IC50 in assay [1] (fluorescent label: DsRed) was < 0.498 µM; in assay [1] (fluorescent label: GFP), < 0.498 µM; in assay [2] (fluorescent label: DsRed), 1.76 µM; in assay [2] (fluorescent label: GFP), 1.78 µM.
Regarding `CCCCCCCCc1ccc(CCC(N)(CO)CO)cc1` [Fingolimod (FTY720)], the 50% inhibitory concentration (IC50) in assay [1] (fluorescent label: DsRed) is 11.8 µM and < 9.85 µM; in assay [1] (fluorescent label: GFP) it was 10.7 µM and < 9.85 µM; in assay [2] (fluorescent label: DsRed), 15.2 µM and 14.7 µM; in assay [2] (fluorescent label: GFP), 18.8 µM and 14.9 µM.
